Test results reported in patent US5514687A, “Benzopyrido piperidylidene compounds, compositions, methods of manufacture and method of use” (Schering Corporation, priority 1993, dated 1996).

What was measured:
Histamine = experiment: Histamine-induced bronchospasm in guinea pigs (in vivo, oral); set-up: species or system guinea pig; conditions: histamine 10 ug/kg i.v.
Description: (§1) B. In Vivo Studies: Agonist-Induced Responses Spasmogen-Induced Bronchospasm in Guinea Pigs
(§2) Male Hartley guinea pigs (450-550 g) were obtained from Charles River Breeding Laboratories. The animals were fasted overnight and the following day were anesthetized with 0.9 mL/kg i.p. of dialurethane (containing 0.1 g/mL dialylbarbiturikc acid, 0.4 g/mL ethylurea and 0.4 g/mL urethane). The left jugular vein was cannulated for the administration of compounds. The trachea was cannulated and the animals were venticlated by a rodent respirator at 55 strokes/min. with a stroke volume of 4 mL. A side arm to the tracheal cannula was connected to a pressure transducer to obtain a continuous measure of inflation pressure. Bronchoconstriction was measured as the percent increase in inflation pressure that peaked within 5 min. after challenge with spasmogen. The animals were challenged i.v. with either histamine (10 ug/kg) or PAF (0.4 μg/kg in isotonic saline containing 0.25% BSA). Each animal was challenged with only a single spasmogen. The effect of a compound on the bronchospasm is expressed as a percent inhibition of the increase in inflation pressure compared to the increase in a control group.

PAF = experiment: PAF-induced bronchospasm in guinea pigs (in vivo, oral); set-up: species or system guinea pig; conditions: PAF 0.4 μg/kg i.v.
Description: as §1, §2

[1] = tested on: PAF-induced platelet aggregation; experiment: Platelet Aggregation Assay (PAF antagonism, in vitro); type: cell-based; conditions: human platelet-rich plasma, PAF 1-5×10^-8 M, 37° C.
Description: Platelet Aggregation Assay
Platelet-activating factor (PAF) causes aggregation of platelets by a receptor-mediated mechanism. Therefore, PAF-induced platelet aggregation provides a simple and convenient assay to screen compounds for PAF antagonism.
Human blood (50 mL) was collected from healthy male donors in an anticoagulant solution (5 mL) containing sodium citrate (3.8%) and dextrose (2%), Blood was centrifuged at 110×g for 15 min. and the supeernatant platelet-rich plasma (PRP) carefully transferred into a polypropylene tube. Platelet-poor-plasma (PPP) was prepared by centrifuging PRP at 12,000×g for 2 min. (Beckman Microfuge B). PRP was used within 3 hr. of drawing the blood.
PAF was dissolved In chloroform:methanol (1:1, v/v) at a concentration of 2 mg/mL and stored at -70° C. An aliquot of this solution was transferred to a polypropylene tube and dried under a flow of nitrogen gas. To the dried sample was added Hepes-e-BSA (BSA=bovine serum albumen) buffer (25 mM Hepes, pH 7.4, […], 0.7 mM MgCl2 and 0.1% BSA) to obtain a 1 mM solution and sonicated for 5 min. in a bath sonicator. This stock solution was further diluted to appropriate concentrations in Hepes-saline-BSA buffer. Collagen (Sigma) and adenosine diphosphate (ADP) (Sigma) were purchased as solutions. Test compounds were initially dissolved in dimethyl sulfoxide (DMSO) at a concentration of 50 mM and then further diluted in Hepes-saline-BSA buffer to achieve appropriate concentrations.
When an aggregating agen such as PAF is added to PRP, platelets aggregate. An aggregometer quantifies this aggreation by measuring and comparing light (infra-red) transmission through PPP and PRP. Aggregation assays were performed using a dual-channel aggregometer (Model 440, Chrono-Log Corp., Havertown, Pa.). PRP (0.45 mL) in aggregometer cuvettes was continually stirred (37° C.). Solution (50 μL) of test compounds or vehicle were added to the PRP and, after incubation for 2 min., 10-15 μl aliquots of PAF solution were added to achieve a final concentration of 1-5×10^-8 M. In different experiments the aggregatory response was kept within a set limit by varying the concentration of PAF. Incubations were continued until the increase in light transmission reached a maximum (usually 2 min.). This increase in lighyt transmission reflecting platlet aggregation is transmitted to a computer by the Chrono-Log model 810 AGGRO/LINK interface. The AGGRO/LINK calculates the slope of transmission change, thus providing the rate of aggregation. Values for inhibition were calculated by comparing rates of aggregation obtained in the absence and the presence of the compound. […]

[2] = oral 3 mg/kg, 2 hours after drug
[3] = oral 15 mg/kg, 8 hours after drug
[4] = oral 5 mg/kg, 8 hours after drug
[5] = oral 15 mg/kg, 16 hours after drug
[6] = oral 10 mg/kg, 6 hours after drug
[7] = oral 10 mg/kg, 16 hours after drug

Row | SMILES | Agonist Bronchospasm (in vivo)-Oral, Histamine, Inhibition (Histamine; [2]) [%] | Agonist Bronchospasm (in vivo)-Oral, Histamine, Inhibition (Histamine; [3]) [%] | Agonist Bronchospasm (in vivo)-Oral, PAF, Inhibition (PAF; [2]) [%] | Agonist Bronchospasm (in vivo)-Oral, PAF, Inhibition (PAF; [3]) [%] | IC50 [1] [nM] | Agonist Bronchospasm (in vivo)-Oral, PAF, Inhibition (PAF; oral 10 mg/kg, 2 hours after drug) [%] | Agonist Bronchospasm (in vivo)-Oral, Histamine, Inhibition (Histamine; [4]) [%] | Agonist Bronchospasm (in vivo)-Oral, Histamine, Inhibition (Histamine; [5]) [%] | Agonist Bronchospasm (in vivo)-Oral, PAF, Inhibition (PAF; [4]) [%] | Agonist Bronchospasm (in vivo)-Oral, PAF, Inhibition (PAF; [5]) [%] | Agonist Bronchospasm (in vivo)-Oral, Histamine, Inhibition (Histamine; [6]) [%] | Agonist Bronchospasm (in vivo)-Oral, Histamine, Inhibition (Histamine; [7]) [%] | Agonist Bronchospasm (in vivo)-Oral, PAF, Inhibition (PAF; [6]) [%] | Agonist Bronchospasm (in vivo)-Oral, PAF, Inhibition (PAF; [7]) [%]
1 | CC(=O)N1CCC(=C2c3ccc(Cl)cc3CCc3cccnc32)CC1 [Compound No. 1] | 49 | 100 | 3 | 32 | 600 |  |  |  |  |  |  |  |  | 
2 | CC(=O)N1CCC(=C2c3ccc(Cl)cc3OCc3cccnc32)CC1 [Compound No. 2] |  |  |  |  | 6000 | 27 |  |  |  |  |  |  |  | 
3 | O=C(c1cc[n+]([O-])cc1)N1CCC(=C2c3ccc(Cl)cc3CCc3cccnc32)CC1 [Compound No. 3] | 37 |  | 93 |  | 200 |  | 33 | 64 | 12 | 13 |  |  |  | 
4 | O=C(c1cc[n+]([O-])cc1)N1CCC(=C2c3ccc(Cl)cc3OCc3cccnc32)CC1 [Compound No. 4, 4-(8-Chloro-5,11-dihydro 1!benzoxepino 4,3-b!pyridin-11-ylidene)-1-(4-pyridinylcarbonyl)piperidine N^1-oxide] | 46 |  | 76 |  | 400 |  |  |  |  |  | 73 | 95 | 94 | 55
